Source: paper PMC6011838, “Transcriptome analysis and anaerobic C4‐dicarboxylate transport in Actinobacillus succinogenes” (MicrobiologyOpen, 2017)

Target: T1, Asuc_1999 (Actinobacillus succinogenes, UniProt A6VQU8)
T1 construct: untagged gene in pBAD30 derivative pMB64, expressed in E. coli IMW529 (deficient in anaerobic fumarate transport); 555 amino acids; cell suspension uptake
Experiment: […] uptake, filtration assay, E. coli cell suspension
Format: cell-based
Conditions: anaerobic; phosphate buffer pH 7, 1 mmol/L MgSO4; 37°C; 1 min uptake; 20 mmol/L lactose preincubation; labelled compound

Row | Compound | Km [µM]
1 | O=C(O)/C=C/C(=O)O [fumarate] | 452
2 | O=C(O)CCC(=O)O [succinate] | 364
